According to publication PMC10870261, “Photoinduced Hydrogel-Forming Caged Peptides with Improved Solubility” (ACS Omega, 2024):
Residues, ends and D or L forms follow the SMILES beside them. *: point of attachment. X1 = O=C(COC(=O)*)c1ccc(O)cc1

Tests used:
[1] = Optical transmittance (turbidity) in PBS; format: physicochemical; details: 300 μM in PBS (pH 7.4, 1×), 25 °C, 532 nm, after the starting point
Protocol: Transmittance was measured using an UV–vis spectrophotometer (Jasco V-650, Jasco, Cremella, Italy) in phosphate-buffered saline (PBS, pH 7.4, 1×) buffer.  Figure 1 Optical transmittance of native (nonprotected) EAK16-II peptide and caged-EAK16-II (300 μM) in PBS, 25 °C, 532 nm, 8 h. […] These turbidity measurements were conducted at a 300 μM concentration, which was also used for in vitro experiments.

[2] = system: A2058 human melanoma cell line; assay: Fluorescence microscopy of cellular arrangement in hydrogels (acridine orange); format: cell-based; details: A2058 cells, 96 h, acridine orange 0.1 mM, 10× magnification, Z-stacks
Protocol: Peptides were dissolved in PBS (1×) at a 1.2 mM concentration. 50–50 μL of the resulting stock solution was added to a 96-well, optical bottom plate. The plate was illuminated with an UV lamp (Sylvania 254 nm, 8 W) for 20 min, followed by the distribution of 50–50 μL of RPMI-1640 medium [supplemented with 10% (v/v %) FBS and 1% L-glutamine, 1% penicillin/streptomycin] into the wells. Then, the plate was incubated for 1 h. For the 3D microscopic imaging of the hydrogels, cells were treated with acridine orange (at 0.1 mM) and incubated for 30 min. Fluorescence measurements were carried out on a Zeiss Celldiscoverer 7 (Zeiss, Jena, Germany) using 10× magnification (Plan-Apochromat λ/0.35 NA objective with 2× tube lens) and acquisition of Z-stacks with 10 μm intervals between individual planes. The images were processed by using ZEN Blue 2.6 software (Carl Zeiss AG, Jena, Germany). Figure 4 (A) Viability of the A2058 human melanoma cell line in native EAK-16-II and caged peptide hydrogels as well as in monolayer (2D) after 96 h. Cell viability was measured using CellTiterGlo assay (Promega, Madison, WI, USA) and normalized to 2D growing cells (control cells) (normalized live cells = 100%). Data are presented as mean values ± standard deviation (SD) from three independent experiments. (B) 3D representation of cellular arrangements in both types of hydrogels. […]

[3] = cited from earlier work
Protocol: These turbidity measurements were conducted at a 300 μM concentration, which was also used for in vitro experiments.

[4] = system: A2058 human melanoma cell line; assay: CellTiterGlo viability assay, cells in 2D monolayer or in peptide hydrogel (3D); format: cell-based; details: HPAA 1 mM, 96 h, normalized to 2D control, n = 3
Protocol: Human melanoma cell line A2058 was obtained from the European Collection of Authenticated Cell Cultures (ECACC, Salisbury, UK) and was cultured in RPMI 1640 medium supplemented with 10% (v/v %) fetal bovine serum (Biosera Europe, Nuaillé, France), 1% L-glutamine, and 1% penicillin/streptomycin (Gibco, Invitrogen Corporation, New York, USA). Cells were propagated in standard cell culture conditions (37 °C, 5% CO2).
Peptides were dissolved in PBS (1×) at a 1.2 mM concentration. 50–50 μL of the resulting stock solution was added to a 96-well, optical bottom plate. […]
Viability tests were performed using CellTiterGlo (Promega, Madison, WI, USA) reagent to determine the quantity of viable cells in both 2D setups and in hydrogels. […] The luminescence signal was measured by a Fluoroskan FL microplate fluorometer and luminometer (Thermo Scientific, Waltham, MA, USA). […] All quantitative data are presented as the mean ± standard deviation (SD). The results were evaluated with MS Excel and OriginPro 2020 software (OriginLab Corporation, Northampton, MA, USA).
Results were evaluated using MS Excel and OriginPro 2020 software (OriginLab Corp., Northampton, MA, USA). […] Data were statistically analyzed using one-way analysis of variance followed by Tukey’s posthoc test. […]

[5] = Solubility and handling (observation during purification, spectroscopic measurement); format: physicochemical; details: aqueous / PBS, qualitative
Protocol: To support this change in “behavior” of the caged derivative, spectroscopic (transmittance) measurements were conducted, which confirmed the suppressed aggregation compared to the nonprotected peptide (Figure 1).
Therefore, its purification and characterization could be carried out in the usual way as for peptides (e.g., RP-HPLC and LC–MS).

Compound: Ac-AEAEAKAKAEAEAKAK-NH2 [EAK16-II]
- Time to "microgelatinization" (sedimentation of peptide aggregates, increase in transmittance) [1]: Around 10 min
- Cellular arrangement (cellular aggregate formation) in hydrogel [2]: distinct cellular aggregates
- Critical aggregating concentration [3]: 0.1 mg/mL

Compound: O=C(O)Cc1ccc(O)cc1 [HPAA, p-hydroxyphenylacetic acid]
- In vitro cytotoxicity, monolayer (2D) ([4]; A2058 cells in 2D (plastic surface)): did not have any long-term toxic effect
- In vitro cytotoxicity, in EAK16-II hydrogel (3D) ([4]; A2058 cells in EAK16-II (300 μM) hydrogel): did not have any long-term toxic effect

Compound: CC(=O)N[C@@H](C)C(=O)N[C@@H](CCC(=O)O)C(=O)N[C@@H](C)C(=O)N[C@@H](CCC(=O)O)C(=O)N[C@@H](C)C(=O)N[C@@H](CCCCNC(=O)OCC(=O)c1ccc(O)cc1)C(=O)N[C@@H](C)C(=O)N[C@@H](CCCCN)C(=O)N[C@@H](C)C(=O)N[C@@H](CCC(=O)O)C(=O)N[C@@H](C)C(=O)N[C@@H](CCC(=O)O)C(=O)N[C@@H](C)C(=O)N[C@@H](CCCCNC(=O)OCC(=O)c1ccc(O)cc1)C(=O)N[C@@H](C)C(=O)N[C@@H](CCCCN)C(N)=O [caged-EAK16-II] (Ac-AEAEAK(X1)AKAEAEAK(X1)AK-NH2)
- Solubility [5]: good solubility
